Assays:
T-47D = experiment: Cellular Assay T-47D; assay type: cell-based; settings: Homo sapiens, T47D; T-47D cells
[1] = target: human full length PIK3CA Wild-type (p110α/p85α complex) (Homo sapiens (Human), UniProt P42336); experiment: PI3K-Alpha kinase (PIK3CA) activity, wild-type, Transcreener ADP2 FI assay; settings: PI3K-α (PIK3CA) wild-type, biochemical
Method in brief: (§1)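 Recombinant full-length p110α/p85α (1-5 nM, wild-type or H1047R) preincubated with compound 1 h at 27° C, then reacted with 25 uM ATP and 50 uM PIP2diC8 or membrane PIP2:PS in pH 7.4 HEPES, 25 mM MgCl2, 5% DMSO (also pH 6.0/6.4 MOPS). Run to ~2.5 uM ADP; Transcreener ADP2 fluorescence converted via ADP calibration for IC50.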

[2] = target: human full length PIK3CA H1047R mutant (p110α/p85α complex) (Homo sapiens (Human), UniProt P42336, H1047R); experiment: PI3K-Alpha kinase (PIK3CA) activity, H1047R mutant, Transcreener ADP2 FI assay; settings: PI3K-α (PIK3CA) H1047R mutant, biochemical
Chain of human full length PIK3CA H1047R mutant (p110α/p85α complex) (P42336 whole entry H1047R): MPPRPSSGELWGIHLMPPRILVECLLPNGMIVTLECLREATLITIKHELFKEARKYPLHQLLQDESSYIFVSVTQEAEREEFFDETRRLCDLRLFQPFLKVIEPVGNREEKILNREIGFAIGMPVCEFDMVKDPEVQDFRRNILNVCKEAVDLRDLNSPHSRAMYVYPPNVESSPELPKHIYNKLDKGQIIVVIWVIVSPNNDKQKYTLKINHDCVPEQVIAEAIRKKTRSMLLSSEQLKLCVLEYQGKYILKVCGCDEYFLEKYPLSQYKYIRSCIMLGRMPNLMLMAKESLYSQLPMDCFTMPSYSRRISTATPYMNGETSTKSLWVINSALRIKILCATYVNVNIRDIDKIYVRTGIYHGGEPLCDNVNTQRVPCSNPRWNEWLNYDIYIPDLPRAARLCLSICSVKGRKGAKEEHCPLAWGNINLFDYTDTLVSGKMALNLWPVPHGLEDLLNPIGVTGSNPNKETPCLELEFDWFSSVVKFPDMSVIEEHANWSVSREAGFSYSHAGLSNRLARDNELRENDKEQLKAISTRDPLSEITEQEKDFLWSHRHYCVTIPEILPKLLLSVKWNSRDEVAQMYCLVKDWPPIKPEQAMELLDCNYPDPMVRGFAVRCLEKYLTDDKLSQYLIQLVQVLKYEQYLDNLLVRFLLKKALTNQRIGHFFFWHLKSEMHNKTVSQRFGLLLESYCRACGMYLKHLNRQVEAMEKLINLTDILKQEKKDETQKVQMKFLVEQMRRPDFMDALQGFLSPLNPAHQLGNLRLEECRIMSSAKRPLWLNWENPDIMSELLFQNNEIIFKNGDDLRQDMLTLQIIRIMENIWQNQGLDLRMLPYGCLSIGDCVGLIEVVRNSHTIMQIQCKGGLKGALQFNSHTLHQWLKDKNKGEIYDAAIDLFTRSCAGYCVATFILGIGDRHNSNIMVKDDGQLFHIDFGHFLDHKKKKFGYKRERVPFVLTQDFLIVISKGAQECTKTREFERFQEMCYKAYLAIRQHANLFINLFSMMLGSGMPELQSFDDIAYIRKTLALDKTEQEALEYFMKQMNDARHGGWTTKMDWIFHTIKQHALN
Chain of human full length PIK3CA H1047R mutant (p110α/p85α complex) (P27986 whole entry partner): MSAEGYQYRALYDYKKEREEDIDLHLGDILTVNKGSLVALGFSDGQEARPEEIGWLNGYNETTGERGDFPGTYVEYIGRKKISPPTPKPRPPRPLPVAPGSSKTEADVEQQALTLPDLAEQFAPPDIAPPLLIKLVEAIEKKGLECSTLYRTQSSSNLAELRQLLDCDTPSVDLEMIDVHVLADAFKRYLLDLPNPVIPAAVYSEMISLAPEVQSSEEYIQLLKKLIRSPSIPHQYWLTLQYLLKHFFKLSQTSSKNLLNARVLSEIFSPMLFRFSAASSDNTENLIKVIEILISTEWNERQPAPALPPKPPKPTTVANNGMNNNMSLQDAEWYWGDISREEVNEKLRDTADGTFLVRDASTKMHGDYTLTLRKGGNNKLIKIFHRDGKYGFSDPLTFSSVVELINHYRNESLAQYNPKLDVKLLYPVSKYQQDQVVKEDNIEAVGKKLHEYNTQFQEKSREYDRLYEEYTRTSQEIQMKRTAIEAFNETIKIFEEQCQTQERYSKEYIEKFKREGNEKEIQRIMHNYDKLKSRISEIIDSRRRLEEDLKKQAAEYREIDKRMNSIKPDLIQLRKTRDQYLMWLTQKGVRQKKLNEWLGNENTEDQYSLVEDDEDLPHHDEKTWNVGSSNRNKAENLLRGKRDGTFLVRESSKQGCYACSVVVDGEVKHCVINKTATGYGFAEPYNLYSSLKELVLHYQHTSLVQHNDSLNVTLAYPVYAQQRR
Method in brief: as §1

Chain of human full length PIK3CA Wild-type (p110α/p85α complex) (P42336 whole entry): as the sequence (P42336 whole entry H1047R) above, with R1047H counted along it
Chain of human full length PIK3CA Wild-type (p110α/p85α complex) (P27986 whole entry partner): as the sequence (P27986 whole entry partner) above

| SMILES | EC50 (T-47D) [µM] | IC50 [1] [µM] | IC50 [2] [µM] |
| --- | --- | --- | --- |
| Cc1cc(C(C)Nc2cccc(Cl)c2C(=O)O)c2oc(N3CCC(C)(C)CC3)cc(=O)c2c1 (centres unmarked) [Example 24, 2-Chloro-6-[1-[2-(4,4-dimethyl-1-piperidyl)-6-methyl-4-oxo-chromen-8-yl]ethylamino]benzoic acid] | > 24 | – | – |
| Cc1cc(C(C)Nc2ccccc2C(=O)O)c2oc(N3CCC4(CC3)COC4)cc(=O)c2c1 (centres unmarked) [Example 98, 2-[1-[6-Methyl-2-(2-oxa-7-azaspiro[3.5]nonan-7-yl)-4-oxo-chromen-8-yl]ethylamino]benzoic acid] | > 24 | – | – |
| Cc1cc(C(C)Nc2ccccc2C(=O)O)c2oc(N3CCN(C)CC3)cc(=O)c2c1 (centres unmarked) [Example 92, 2-[1-[6-Methyl-2-(4-methylpiperazin-1-yl)-4-oxo-chromen-8-yl]ethylamino]benzoic acid] | > 24 | – | – |
| Cc1cc(C(C)Nc2ccccc2C(=O)O)c2oc(N3CCNCC3)cc(=O)c2c1 (centres unmarked) [Example 91, 2-[1-(6-Methyl-4-oxo-2-piperazin-1-yl-chromen-8-yl)ethylamino]benzoic acid] | > 24 | – | – |
| Cc1cc(CNc2ccccc2C(=O)O)c2oc(N3CCC(C)(C)CC3)cc(=O)c2c1 [Example 369, 2-[[2-(4,4-Dimethyl-1-piperidyl)-6-methyl-4-oxo-chromen-8-yl]methylamino]benzoic acid] | > 24 | – | – |
| Cc1cc(C(C)Nc2ccccc2C(=O)O)c2oc(N(C)C)cc(=O)c2c1 (centres unmarked) [Example 78, 2-[1-[2-(Dimethylamino)-6-methyl-4-oxo-chromen-8-yl]ethylamino]benzoic acid] | > 24 | – | – |
| Cc1cc(C(C)Nc2ccccc2C(=O)O)c2oc(N3CCCC4(CCNC4=O)C3)cc(=O)c2c1 (centres unmarked) [Example 95, 2-[1-[6-Methyl-4-oxo-2-(1-oxo-2,9-diazaspiro[4.5]decan-9-yl)chromen-8-yl]ethylamino]benzoic acid] | > 24 | – | – |
| Cc1cc(C(C)Nc2ccccc2C(=O)O)c2oc(N3CC(c4ccccc4)C3)cc(=O)c2c1 (single isomer, unassigned) [Example 236, 2-[1-[6-Methyl-4-oxo-2-(3-phenylazetidin-1-yl)chromen-8-yl]ethylamino]benzoic acid 2,2,2-trifluoroacetic acid] | – | 0.5 to 1 | < 0.5 |
| CC(Nc1ccccc1C(=O)O)c1cc(C(F)(F)F)cc2c(=O)cc(N3Cc4ccc(C#N)cc4C3)oc12 (single isomer, unassigned; isomer 2) [Example 338, 2-[1-[2-(5-Cyanoisoindolin-2-yl)-4-oxo-6-(trifluoromethyl)chromen-8-yl]ethylamino]benzoic acid, Isomer 2] | – | < 0.5 | < 0.5 |
| Cc1cc(C(C)Nc2ccccc2C(=O)O)c2oc(N3CCCOCC3)cc(=O)c2c1 (centres unmarked) [Example 151, 2-[1-[6-Methyl-2-(1,4-oxazepan-4-yl)-4-oxo-chromen-8-yl]ethylamino]benzoic acid] | – | 1 to 5 | 0.5 to 1 |
| Cc1cc(C(C)Nc2ccccc2S(=O)(=O)O)c2oc(N3CCC(C)(C)CC3)cc(=O)c2c1 (centres unmarked) [Example 4, 2-[1-[2-(4,4-Dimethyl-1-piperidyl)-6-methyl-4-oxo-chromen-8-yl]ethylamino]benzenesulfonic acid] | – | 1 to 5 | 1 to 5 |
| CC(Nc1ccccc1C(=O)O)c1cc(C(F)(F)F)cc2c(=O)cc(N3Cc4ccccc4C3)oc12 (single isomer, unassigned) [Example 342, 2-[1-[2-Isoindolin-2-yl-4-oxo-6-(trifluoromethyl)chromen-8-yl]ethylamino]benzoic acid] | – | < 0.5 | < 0.5 |
| Cc1cc(C(C)Nc2ccccc2C(=O)O)c2oc(N3CC4(C3)CC(F)(F)C4)cc(=O)c2c1 (single isomer, unassigned) [Example 222, 2-[1[2-(6,6-Difluoro-2-azaspiro[3.3]heptan-2-yl)-6-methyl-4-oxo-chromen-8-yl]ethylamino]benzoic acid 2,2,2-trifluoroacetic acid] | – | 1 to 5 | < 0.5 |
| Cc1cc(C(C)Nc2ccc(C3CC3)nc2C(=O)O)c2oc(N3CCC(C)(C)CC3)cc(=O)c2c1 (centres unmarked) [Example 50, 6-Cyclopropyl-3-[1-[2-(4,4-dimethyl-1-piperidyl)-6-methyl-4-oxo-chromen-8-yl]ethylamino]pyridine-2-carboxylic acid] | – | 1 to 5 | 0.5 to 1 |
| Cc1cc(C(C)Nc2ccccc2C(=O)O)c2oc(N3Cc4ccccc4C3)cc(=O)c2c1 (single isomer, unassigned) [Example 362, 2-[1-(2-Isoindolin-2-yl-6-methyl-4-oxo-chromen-8-yl)ethylamino]benzoic acid] | – | 0.5 to 1 | < 0.5 |

Continued, values first:

| EC50 (T-47D) [µM] | IC50 [1] [µM] | IC50 [2] [µM] | SMILES |
| --- | --- | --- | --- |
| > 24 | – | – | Cc1cc(C(C)Nc2cc(C)c(C)cc2C(=O)O)c2oc(N3CCC(C)(C)CC3)cc(=O)c2c1 (centres unmarked) [Example 12, 2-[1-[2-(4,4-Dimethyl-1-piperidyl)-6-methyl-4-oxo-chromen-8-yl]ethylamino]-4,5-dimethyl-benzoic acid] |
| > 24 | – | – | Cc1cc(C(C)Nc2cccc3c2C(=O)NC3=O)c2oc(N3CCC(C)(C)CC3)cc(=O)c2c1 (centres unmarked) [Example 32, 4-((1-(2-(4,4-Dimethylpiperidin-1-yl)-6-methyl-4-oxo-4H-chromen-8-yl)ethyl)amino)isoindoline-1,3-dione] |
| 1 to 5 | – | – | Cc1cc(C(C)Nc2ccccc2C(=O)O)c2oc(N3CCCC(C)C3)cc(=O)c2c1 (centres unmarked) [Example 79, 2-[1-[6-Methyl-2-(3-methyl-1-piperidyl)-4-oxo-chromen-8-yl]ethylamino]benzoic acid] |
| 15 to 24 | – | – | Cc1cc(C(C)Nc2c(Cl)cccc2C(=O)O)c2oc(N3CCC(C)(C)CC3)cc(=O)c2c1 (centres unmarked) [Example 11, 3-Chloro-2-[1-[2-(4,4-dimethyl-1-piperidyl)-6-methyl-4-oxo-chromen-8-yl]ethylamino]benzoic acid] |
| 15 to 24 | – | – | Cc1cc(C(C)Nc2ccccc2C(=O)O)c2oc(N3CCCC3)cc(=O)c2c1 (centres unmarked) [Example 368, 2-[1-(6-Methyl-4-oxo-2-pyrrolidin-1-yl-chromen-8-yl)ethylamino]benzoic acid] |
| 1 to 5 | – | – | Cc1cc([C@@H](C)Nc2ccccc2C(=O)O)c2oc(N3CCC(Cl)CC3)cc(=O)c2c1 [Example 383, 2-[[(1R)-1-[2-(4-Chloro-1-piperidyl)-6-methyl-4-oxo-chromen-8-yl]ethyl]amino]benzoic acid] |
| 15 to 24 | – | – | Cc1cc(C(C)Nc2cc(Cl)ccc2C(=O)O)c2oc(N3CCC(C)(C)CC3)cc(=O)c2c1 (centres unmarked) [Example 10, 4-Chloro-2-[1-[2-(4,4-dimethyl-1-piperidyl)-6-methyl-4-oxo-chromen-8-yl]ethylamino]benzoic acid] |
| > 24 | – | – | Cc1cc(C(C)Nc2ccccc2C(=O)O)c2oc(N3CCC4(CCN(C)C4=O)CC3)cc(=O)c2c1 (centres unmarked) [Example 381, 2-[1-[6-Methyl-2-(2-methyl-1-oxo-2,8-diazaspiro[4.5]decan-8-yl)-4-oxo-chromen-8-yl]ethylamino]benzoic acid] |
| > 24 | – | – | COCCOCCOC(=O)c1ccccc1N[C@H](C)c1cc(C)cc2c(=O)cc(N3CCCCC3)oc12 [Example 377, 2-(2-Methoxyethoxy)ethyl 2-[[(1R)-1-[6-methyl-4-oxo-2-(1-piperidyl)chromen-8-yl]ethyl]amino]benzoate] |
| 5 to 15 | – | – | Cc1cc(C(C)Nc2cc(F)ccc2C(=O)O)c2oc(N3CCC(C)(C)CC3)cc(=O)c2c1 (centres unmarked) [Example 36, 2-[1-[2-(4,4-Dimethyl-1-piperidyl)-6-methyl-4-oxo-chromen-8-yl]ethylamino]-4-fluoro-benzoic acid] |
| > 24 | – | – | COc1cc(NC(C)c2cc(C)cc3c(=O)cc(N4CCC(C)(C)CC4)oc23)c(C(=O)O)cc1OC (centres unmarked) [Example 16, 2-[1-[2-(4,4-Dimethyl-1-piperidyl)-6-methyl-4-oxo-chromen-8-yl]ethylamino]-4,5-dimethoxy-benzoic acid] |
| > 24 | – | – | Cc1cc(C(C)Nc2c(C)cccc2C(=O)O)c2oc(N3CCC(C)(C)CC3)cc(=O)c2c1 (centres unmarked) [Example 17, 2-[1-[2-(4,4-Dimethyl-1-piperidyl)-6-methyl-4-oxo-chromen-8-yl]ethylamino]-3-methyl-benzoic acid] |
| 1 to 5 | – | – | Cc1cc(C(C)Nc2ccccc2C(=O)O)c2oc(N3CCC(C)CC3)cc(=O)c2c1 (centres unmarked) [Example 370, 2-[1-[6-Methyl-2-(4-methyl-1-piperidyl)-4-oxo-chromen-8-yl]ethylamino]benzoic acid] |
| 5 to 15 | – | – | Cc1cc(C(C)Nc2ccccc2C(=O)O)c2oc(N3CCC4(CCOCC4)CC3)cc(=O)c2c1 (centres unmarked) [Example 94, 2-[1-[6-Methyl-2-(3-oxa-9-azaspiro[5.5]undecan-9-yl)-4-oxo-chromen-8-yl]ethylamino]benzoic acid] |
| 15 to 24 | – | – | Cc1cc(C(C)Nc2cc(F)c(C)cc2C(=O)O)c2oc(N3CCC(C)(C)CC3)cc(=O)c2c1 (centres unmarked) [Example 18, 2-[1-[2-(4,4-Dimethyl-1-piperidyl)-6-methyl-4-oxo-chromen-8-yl]ethylamino]-4-fluoro-5-methyl-benzoic acid] |
| 5 to 15 | – | – | Cc1cc(C(C)Nc2cccc(F)c2C(=O)O)c2oc(N3CCC(C)(C)CC3)cc(=O)c2c1 (centres unmarked) [Example 23, 2-[1-[2-(4,4-Dimethyl-1-piperidyl)-6-methyl-4-oxo-chromen-8-yl]ethylamino]-6-fluoro-benzoic acid] |
| < 1 | – | – | Cc1cc(C(C)Nc2ccccc2C(=O)O)c2oc(N3CCC(C)(C)CC3)c(C)c(=O)c2c1 (single isomer, unassigned) [Example 358, 2-[1-[2-(4,4-Dimethyl-1-piperidyl)-3,6-dimethyl-4-oxo-chromen-8-yl]ethylamino]benzoic acid] |
| 5 to 15 | – | – | Cc1cc(C(C)Nc2ccc(Br)cc2C(=O)O)c2oc(N3CCC(C)(C)CC3)cc(=O)c2c1 (centres unmarked) [Example 7, 5-Bromo-2-[1-[2-(4,4-dimethyl-1-piperidyl)-6-methyl-4-oxo-chromen-8-yl]ethylamino]benzoic acid] |

Reference: US11649227B2, “Allosteric chromenone inhibitors of phosphoinositide 3-kinase (PI3K) for the treatment of disease” (Petra Pharma Corporation, priority 2020, dated 2023)
